Data as given in patent US4225619A, “Substituted fluoracylresorcinols” (Boehringer Ingelheim GmBH, priority 1976, dated 1980).
≈ marks a conversion by molar mass, not a printed value.

Legend:
Assay type in all cases: cell-based
[1] = system: Streptococcus pyogenes At CC 86 68; test: Serial dilution test; details: for MIC: Streptococcus pyogenes, ATCC8668, 18-20 hours at 37° C., read-out: MIC, S.D.T., Streptococcus pyogenes
Protocol: (§1) The inhibitory effect on bacteria and fungi was examined by the serial dilution test and the agar diffusion test (hole-test). As bacteria were used: Staphylococcus aureus SG 511, Streptococcus Aronson, Streptococcus pyogenes At CC 86 68; as fungi: Candida albicans AT CC 10231, Trichophyton mentagrophytes AT CC 9129 and Aspergillus niger.
(§2) 2. Glucose broth: for Sc. Aronson and St. pyogenes Recipe see meat extract broth. After sterilization 1 weight percent of glucose is added as a sterile 50% solution.
(§3) The age of the primary cultures is 24 hours for bacteria and 14 days for fungi. The standardization of the suspension of microorganisms is effected using a photometer according to Eppendorf (test tube .phi.14 mm, filter 546 nm) and a suspension for comparison consisting of barium sulfate, this suspension being created by adition of 3.0 ml of 1% barium chloride solution to 97 ml of 1% sulfuric acid. After the standardization the bacteria were further diluted to a concentration of 1:1000 by means of sodium chloride solution, the fungi were used in an undiluted state.
(§4) 40 mgm of the substance were put into a 10 ml measuring flask and filled up to the mark with the solvent (corresponds to a dilution of 1:250=4000 μg/ml). The further dilution series was standardized with distilled water or the respective solvent and the following substance concentrations were prepared: 1000; 250; 62.5 μg/ml.
(§5) The tubes were filled with 4.9 ml of the corresponding liquid nutrient medium. Then 0.1 ml of the substance dilution prepared above was added to each tube, so that the mentioned final concentrations were present. Finally each tube was inoculated with 0.1 ml of the standardized suspension of microorganisms. Control tests merely using the solvent are to be carried out simultaneously.
(§6) Bacteria were incubated at 37° C. for 18-20 hours and fungi at 27° C. for 7 days.
(§7) The measurement is carried out macroscopically defining the minimal inhibitory concentration (the lowest still microbiostatically effective concentration).

Streptococcus Aronson [2] = test: Serial dilution test; details: for MIC: Streptococcus, 18-20 hours at 37° C., read-out: MIC, S.D.T., Streptococcus Aronson
Protocol: as §1, §2, §3, §4, §5, §6, §7

[3] = system: Staphylococcus aureus SG 511; test: Serial dilution test; details: for MIC: Staphylococcus aureus, SG511, 18-20 hours at 37° C., read-out: MIC, S.D.T., Staphylococcus aureus SG 511
Protocol: as §1
1. Meat extract broth: for St. aureus SG 511
as §3, §4, §5, §6, §7

HeLa-cell culture = test: Inhibition of HeLa cell cultures; details: Homo sapiens, 72 h, 37° C. for 3 days, 5% carbon dioxide; for IC50: read-out: ED50, HeLa cell culture; for minimal effective concentration: read-out: Minimal inhibitory concentration, HeLa cell culture
Protocol: Measurement of the inhibition of cell cultures
HeLa-cell culture was treated with trypsin and adjusted to a cell number of 150,000 cells/ml of fresh medium. The substance was always dissolved in the same quantity of dimethyl sulfoxide and then further diluted with growth medium. 0.1 ml of the substance-dilutions were added to each well of microtiter plates and then 0.2 ml of cell suspension were added (4 wells per dilution). Several growth controls containing 0.1 ml of growth medium instead of 0.1 ml of substance dilution were put up. After careful mixing, the cultures were incubated at 37° C. for 3 days in a 5% carbon dioxide atmosphere. The reading was effected in comparison with these controls. The results were given as the percentage of the deficiency and degeneration compared to the growth control. […] The statements are referred to μg of substance per ml of total medium.

[4] = system: Streptococcus pyogenes At CC 86 68; test: Agar diffusion test (hole-test); details: ATCC8668, 18-20 hours at 37° C., read-out: MIC, A.D.T., Streptococcus pyogenes
Protocol: as §1
(§8) 2. Glucose agar: for Sc. Aronson and St. pyogenes Recipe see meat extract agar. After sterilization 1 weight percent of glucose is added as a sterile 50% solution.
(§9) The age of the primary cultures is 24 hours for bacteria and 14 days for fungi. The standardization of the suspension of microorganisms is effected using a photometer according to Eppendorf (test tube .phi.14 mm, filter 546 nm) and a suspension for comparison consisting of barium sulfate, this suspension being created by addition of 3.0 ml of 1% barium chloride solution to 97 ml of 1% sulfuric acid. After the standardization St. aureus SG 511 was diluted 1:1000 and Sc. pyogenes and Aronson 1:100 by means of sodium chloride solution. The fungi were used in an undiluted state.
(§10) 40 mgm of the substance were put into a 10 ml measuring flask and filled up to the mark with the solvent (corresponds to a dilution of 1:250=4000 μg/ml).
(§11) The dilutions to the concentrations under test were effected with distilled water or the respective solvent.
(§12) 19 ml of the nutrient medium were filled into sterile Petri dishes of a diameter of 8 cm and dried. Subsequently the agar plates were charged with 4 ml of seed agar. 100 ml of seed agar contain 1.25 ml of the suspension of microorganisms, an agar plate thus containing 0.05 ml of the suspension of microorganisms. After solidification of the agar, 5 holes of a diameter of 5 mm were punched into the plates and filled with 0.05 ml of the correspondingly concentrated substance solution.
(§13) Control tests merely using the solvent are to be carried out simultaneously.
as §6
(§14) The diameter of the area of inhibition in mm was measured after having deducted the diameter of the hole.

Streptococcus Aronson [5] = test: Agar diffusion test (hole-test); details: 18-20 hours at 37° C., read-out: MIC, A.D.T., Streptococcus Aronson
Protocol: as §1, §8, §9, §10, §11, §12, §13, §6, §14

[6] = system: Staphylococcus aureus SG 511; test: Agar diffusion test (hole-test); details: SG511, 18-20 hours at 37° C., read-out: MIC, A.D.T., Staphylococcus aureus SG 511
Protocol: as §1
1. Meat extract agar: for St. aureus SG 511
as §9, §10, §11, §12, §13, §6, §14

Corynebacterium acnes = test: Serial dilution test for Corynebacterium acnes; details: for MIC: Cutibacterium acnes, 37° C. for 48 hours, read-out: MIC, S.D.T., Corynebacterium acnes; for Concentration with reduced growth (value in brackets), S.D.T., Corynebacterium acnes: reduced growth at this concentration
Protocol: Serial dilution test for Corynebacterium acnes and Pityrosporum ovale Nutrient medium
For Corynebacterium acnes: thioglycolate-broth for Pityrosporum ovale: Littmann's broth, 5 ml per tube.
Suspension of microorganisms in 0.9% sodium chloride solution, standardized using a photometer according to Eppendorf by means of a suspension for comparison consisting of barium sulfate, for Corynebacterium acnes in a dilution of 1:100, for Pityrosporum ovale in an undiluted state. 0.1 ml of the suspensions was used per test tube. Dimethyl sulfoxide served as a solvent for the substances.
The suspension with Corynebacteria acnes was incubated at 37° C. for 48 hours, the suspension of Pityrosporum ovale at 27° C. for 7 days. The reading was effected by macroscopic evaluation of the growth of microorganisms and registration of the minimal inhibitory concentration.

[7] = reduced growth at this concentration

Compound	MIC [1]	MIC (Streptococcus Aronson [2])	MIC [3]	IC50 (HeLa-cell culture)	minimal effective concentration (HeLa-cell culture)	MIC [4]	MIC (Streptococcus Aronson [5])	MIC [6]	MIC (Corynebacterium acnes)	Concentration with reduced growth (value in brackets), S.D.T., Corynebacterium acnes (Corynebacterium acnes)	Concentration with reduced growth (value in brackets), S.D.T., Streptococcus Aronson (Streptococcus Aronson [2]; [7])	Concentration with reduced growth (value in brackets), S.D.T., Streptococcus pyogenes [1, 7]	Concentration with reduced growth (value in brackets), S.D.T., Staphylococcus aureus SG 511 [3, 7]
CC(C)CCc1cc(C(=O)C(F)(F)F)c(O)cc1O [G, 2,4-Dihydroxy-5-iso-pentyl-trifluoroacetophenone]	0.31 µg/mL (≈ 1.12 µM)	1.25 µg/mL (≈ 4.52 µM)	0.31 µg/mL (≈ 1.12 µM)	5.8 µg/mL (≈ 21 µM)	0.78 µg/mL	≤ 15.6 µg/mL	≤ 15.6 µg/mL	≤ 15.6 µg/mL	1.25 µg/mL (≈ 4.52 µM)				
O=C(c1ccc(O)c(C2CCCCCCCCCCC2)c1O)C(F)(F)F [L, 2,4-Dihydroxy-3-cyclododecyl-trifluoroacetophenone]	0.08 µg/mL (≈ 0.215 µM)	0.31 µg/mL (≈ 0.832 µM)	0.31 µg/mL (≈ 0.832 µM)			62.5 µg/mL (≈ 168 µM)	≤ 15.6 µg/mL	62.5 µg/mL (≈ 168 µM)	1.25 µg/mL (≈ 3.36 µM)	0.31 µg/mL			
CC1CC(C)CC(c2cc(C(=O)C(F)(F)F)c(O)cc2O)C1 (centres unmarked) [I, 2,4-Dihydroxy-5-(3',5'-dimethyl)-cyclohexyl-tri-fluoroacetophenone]	0.31 µg/mL (≈ 0.98 µM)	0.08 µg/mL (≈ 0.253 µM)	0.31 µg/mL (≈ 0.98 µM)			≤ 15.6 µg/mL	≤ 15.6 µg/mL	≤ 15.6 µg/mL	0.08 µg/mL (≈ 0.253 µM)				
O=C(c1ccc(O)c(C2CCCC2)c1O)C(F)(F)F [N, 2,4-Dihydroxy-3-cyclopentyl-trifluoroacetophenone]	0.31 µg/mL (≈ 1.13 µM)	1.25 µg/mL (≈ 4.56 µM)	1.25 µg/mL (≈ 4.56 µM)	5.32 µg/mL (≈ 19.4 µM)	3.13 µg/mL	62.5 µg/mL (≈ 228 µM)	≤ 15.6 µg/mL	≤ 15.6 µg/mL	0.31 µg/mL (≈ 1.13 µM)				
CCCCCCCCC(C)c1c(O)ccc(C(=O)C(F)(F)F)c1O (centres unmarked) [M]	1.25 µg/mL (≈ 3.61 µM)	20 µg/mL (≈ 57.7 µM)	1.25 µg/mL (≈ 3.61 µM)			≤ 15.6 µg/mL	≤ 15.6 µg/mL	250 µg/mL (≈ 722 µM)	0.31 µg/mL (≈ 0.895 µM)		1.25 µg/mL		
CCCCC(C)c1c(O)ccc(C(=O)C(F)(F)F)c1O (centres unmarked) [K]	0.31 µg/mL (≈ 1.07 µM)	1.25 µg/mL (≈ 4.31 µM)	1.25 µg/mL (≈ 4.31 µM)	2.27 µg/mL (≈ 7.82 µM)	0.78 µg/mL	≤ 15.6 µg/mL	≤ 15.6 µg/mL	≤ 15.6 µg/mL	0.08 µg/mL (≈ 0.276 µM)				
CCCCCCCCCc1cc(C(=O)C(F)(F)F)c(O)cc1O [J, 2,4-Dihydroxy-5-n-nonyl-trifluoroacetophenone]	1.25 µg/mL (≈ 3.76 µM)	5 µg/mL (≈ 15 µM)	5 µg/mL (≈ 15 µM)			≤ 15.6 µg/mL	≤ 15.6 µg/mL	≤ 15.6 µg/mL	0.02 µg/mL (≈ 0.0602 µM)			0.08 µg/mL	1.25 µg/mL
Cc1c(O)c(Cc2cc(C(=O)C(F)(F)F)c(O)c(C)c2O)cc(C(=O)C(F)(F)F)c1O [S, Methylene-bis-(2,4-dihydroxy-3-methyl-5-trifluoro-acetyl)-benzene]	1.25 µg/mL (≈ 2.76 µM)	1.25 µg/mL (≈ 2.76 µM)	1.25 µg/mL (≈ 2.76 µM)	3.8 µg/mL (≈ 8.4 µM)	≤ 0.78 µg/mL	≤ 15.6 µg/mL	≤ 15.6 µg/mL	≤ 15.6 µg/mL	0.31 µg/mL (≈ 0.685 µM)				
CCc1cc(C(=O)C(F)(F)F)c(O)c(Cc2c(O)c(CC)cc(C(=O)C(F)(F)F)c2O)c1O [R, Methylene-bis-(2,6-dihydroxy-3-ethyl-5-trifluoro-acetyl)-benzene]	0.005 µg/mL (≈ 0.0104 µM)	0.31 µg/mL (≈ 0.645 µM)	0.08 µg/mL (≈ 0.167 µM)			≤ 15.6 µg/mL	≤ 15.6 µg/mL	≤ 15.6 µg/mL	0.005 µg/mL (≈ 0.0104 µM)				
O=C(c1ccc(O)c(C2CCCCCC2)c1O)C(F)(F)F [O, 2,4-Dihydroxy-3-cycloheptyl-trifluoroacetophenone]	0.08 µg/mL (≈ 0.265 µM)	0.31 µg/mL (≈ 1.03 µM)	0.31 µg/mL (≈ 1.03 µM)			≤ 15.6 µg/mL	≤ 15.6 µg/mL	≤ 15.6 µg/mL	1.25 µg/mL (≈ 4.14 µM)	0.31 µg/mL			
